Assay results published in patent publication US8232284B2, “Heteroaryloxy quinazoline derivative” (MSD K. K., priority 2007, dated 2012).
Counter-ions that a name gives are not always drawn.

What follows are compounds tested against T1, recombinant human liver GK (Homo sapiens, UniProt P35557) (assay: Glucokinase-activating effect (Thio-NADH coupled assay with G6PDH, 2.5 mM glucose)). Conditions: OD level of DMSO control set as 100%; final glucose concentration 2.5 mM; 30° C.
T1 construct: made in house; host or cells: E. coli
T1 sequence (P35557 1-466 isoform P35557-2): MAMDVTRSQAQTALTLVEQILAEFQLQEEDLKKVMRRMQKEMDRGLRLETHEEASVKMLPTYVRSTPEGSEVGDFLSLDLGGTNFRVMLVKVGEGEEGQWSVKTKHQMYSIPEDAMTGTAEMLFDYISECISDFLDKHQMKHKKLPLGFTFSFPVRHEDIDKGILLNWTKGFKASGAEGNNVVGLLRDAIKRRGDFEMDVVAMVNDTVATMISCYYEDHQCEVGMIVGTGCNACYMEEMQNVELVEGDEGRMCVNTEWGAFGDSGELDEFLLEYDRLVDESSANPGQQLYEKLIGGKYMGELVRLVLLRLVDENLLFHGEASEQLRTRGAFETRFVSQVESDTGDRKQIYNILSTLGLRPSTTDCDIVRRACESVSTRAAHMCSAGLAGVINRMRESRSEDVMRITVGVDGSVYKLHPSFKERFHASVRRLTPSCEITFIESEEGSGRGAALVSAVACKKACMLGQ
Format: biochemical
Description: The excellent glucokinase-activating effect of the compounds of the formula (I) may be determined by a method described in literature (for example, Diabetes, Vol. 45, pp. 1671-1677, 1996), or in accordance with it.
The glucokinase activity may be determined not by directly measuring glucose-6-phosphate but by measuring the level of Thio-NADH, which is produced when a reporter enzyme, glucose-6-phosphate dehydrogenase produces phosphogluconolactone from glucose-6-phosphate, and based on the level, the degree of glucokinase activation by the compound tested may be determined
In this assay, used was a recombinant human liver GK, which was expressed by E. coli as a FLAG fusion protein therein and was purified by ANTIFLAG M2 AFFINITY GEL (Sigma).
Using a flat-bottomed 96-well plate, the assay was carried out at 30° C. 69 μl of an assay buffer (25 mM Hepes Buffer/pH=7.2, 2 mM MgCl2, 1 mM ATP, 0.5 mM TNAD, 1 mM dithiothreitol) was put into the plate, and 1 μl of a DMSO solution of the compound or DMSO alone as a control was added thereto. Next, 20 μl of an enzyme mixture (FLAG-GK, 20 U/ml G6PDH) cooled in ice was added to it, and 10 μl of a substrate, 25 mM glucose was added to it, and the reaction was initiated (final glucose concentration=2.5 mM).
After the start of the reaction, the increase in the absorbance at 405 nm was measured for 12 minutes at intervals of 30 seconds, and the increase for the first 5 minutes was used for assessing the compound tested. FLAG-GK was added so that the absorbance increase after 5 minutes in the presence of 1% DMSO could be from 0.04 to 0.06.
The OD level of the DMSO control was set as 100%; and the OD level of the test compound at different concentrations was determined. From the OD level at each concentration, Emax (%) and EC50 (μM) were computed and used as the index of the GK-activating potency of the compound.
The comparative test was conducted to compare the compound of example 18, 31 and 32 in this invention with the compound (A) in the patent document 1. The test method in vitro was similar to pharmacological experiment 1 (glucokinase-activating effect).

Row | SMILES | Emax
1 | CN(C)CCOc1ccc(Oc2ccc3ncnc(Nc4ccn(C)n4)c3c2)cn1 [Example 3, 6-({6-[2-(dimethylamino)ethoxy]pyridin-3-yl}oxy)-N-(1-methyl-1H-pyrazol-3-yl)quinazoline-4-amine] | 918%
2 | CN(C)CCOc1ncc(Oc2ccc3ncnc(Nc4ccn(C)n4)c3c2)cn1 [Example 7, 6-({2-[2-(dimethylamino)ethoxy]pyrimidin-5-yl}oxy)-N-(1-methyl-1H-pyrazol-3-yl)quinazoline-4-amine] | 695%

Continued, values first:

Row | Emax | SMILES
3 | 598% | CN(C)CCN(C)C(=O)c1ccnc(Oc2ccc3ncnc(Nc4ccn(C)n4)c3c2)c1Cl [Example 67, 3-chloro-N-[2-(dimethylamino)ethyl]-N-methyl-2-({4-[(1-methyl-1H-pyrazol-3-yl)amino]quinazolin-6-yl}oxy)isonicotinamide]
4 | 979% | CNCCOc1cnc(Oc2ccc3ncnc(Nc4ccn(C)n4)c3c2)c(C)c1 [Example 70, N-methyl-2-{[5-methyl-6-({4-[(1-methyl-1H-pyrazol-3-yl)amino]quinazolin-6-yl}oxy)pyridin-3-yl]oxy}ethanamine hydrochloride]
5 | 888% | Cc1cnc(Nc2ncnc3ccc(Oc4ncc(OCCCO)cc4Cl)cc23)cn1 [Example 61, 3-{[5-chloro-6-({4-[(5-methylpyrazin-2-yl)amino]quinazolin-6-yl}oxy)pyridin-3-yl]oxy}propan-1-ol]

Same assay, conditions: final glucose concentration 2.5 mM; 30° C.; read-out: EC50

Row | SMILES | EC50
6 | CN(C)CCCOc1ccc(Oc2ccc3ncnc(Nc4ccn(C)n4)c3c2)nc1 [Example 4, 6-({5-[3-(dimethylamino)propoxy]pyridin-2-yl}oxy)-N-(1-methyl-1H-pyrazol-3-yl)quinazoline-4-amine] | 380 nM
7 | Cn1ccc(Nc2ncnc3ccc(Oc4ncc(OC5CNC5)cc4Cl)cc23)n1 [Example 23, 6-{[5-(azetidin-3-yloxy)-3-chloropyridin-2-yl]oxy}-N-(1-methyl-1H-pyrazol-3-yl)quinazoline-4-amine hydrochloride] | 50 nM
8 | CCN1CC(Oc2cnc(Oc3ccc4ncnc(Nc5ccn(C)n5)c4c3)c(F)c2)C1 [Example 25, 6-({5-[(1-ethylazetidin-3-yl)oxy]-3-fluoropyridin-2-yl}oxy)-N-(1-methyl-1H-pyrazol-3-yl)quinazoline-4-amine hydrochloride] | 230 nM
9 | CN(C)CCOc1ccc(Oc2ccc3ncnc(Nc4ccn(C)n4)c3c2)cn1 [Example 3, 6-({6-[2-(dimethylamino)ethoxy]pyridin-3-yl}oxy)-N-(1-methyl-1H-pyrazol-3-yl)quinazoline-4-amine] | 1740 nM
10 | CC(C)NCCOc1ccc(Oc2ccc3ncnc(Nc4ccn(C)n4)c3c2)nc1 [Example 5, 6-({5-[2-(isopropylamino)ethoxy]pyridin-2-yl}oxy)-N-(1-methyl-1H-pyrazol-3-yl)quinazoline-4-amine] | 260 nM
11 | CN(C)CCOc1cnc(Cl)c(Oc2ccc3ncnc(Nc4ccn(C)n4)c3c2)c1 [Example 2, 6-({2-chloro-5-[2-(dimethylamino)ethoxy]pyridin-3-yl}oxy)-N-(1-methyl-1H-pyrazol-3-yl)quinazoline-4-amine] | 420 nM
12 | CN(C)CCOc1ncc(Oc2ccc3ncnc(Nc4ccn(C)n4)c3c2)cn1 [Example 7, 6-({2-[2-(dimethylamino)ethoxy]pyrimidin-5-yl}oxy)-N-(1-methyl-1H-pyrazol-3-yl)quinazoline-4-amine] | 6930 nM
13 | CN(C)CCOc1cnc(Oc2ccc3ncnc(Nc4ccn(C)n4)c3c2)nc1 [Example 8, 6-({5-[2-(dimethylamino)ethoxy]pyrimidin-2-yl}oxy)-N-(1-methyl-1H-pyrazol-3-yl)quinazoline-4-amine] | 1320 nM
14 | CN(C)CCOc1cnc(Oc2ccc3ncnc(Nc4ccn(C)n4)c3c2)c(Cl)c1 [Example 1, 6-({3-chloro-5-[2-(dimethylamino)ethoxy]pyridin-2-yl}oxy)-N-(1-methyl-1H-pyrazol-3-yl)quinazoline-4-amine] | 80 nM
15 | Cc1cnc(Nc2ncnc3ccc(Oc4ncc(OCCN(C)C)cc4Cl)cc23)cn1 [Example 35, 6-({3-chloro-5-[2-(dimethylamino)ethoxy]pyridin-2-yl}oxy)-N-(5-methylpyrazin-2-yl)quinazoline-4-amine] | 100 nM
16 | CCNCCCOc1cnc(Oc2ccc3ncnc(Nc4ccn(C)n4)c3c2)c(Cl)c1 [Example 20, 6-({3-chloro-5-[3-(ethylamino)propoxy]pyridin-2-yl}oxy)-N-(1-methyl-1H-pyrazol-3-yl)quinazoline-4-amine hydrochloride] | 40 nM
17 | Cc1cnc(Nc2ncnc3ccc(Oc4ncc(OCCN(C)C)cc4C)cc23)cn1 [Example 34, 6-({5-[2-(dimethylamino)ethoxy]-3-methylpyridin-2-yl}oxy)-N-(5-methylpyrazin-2-yl)quinazoline-4-amine hydrochloride] | 70 nM

Continued, values first:

Row | EC50 | SMILES
18 | 290 nM | Cc1nsc(Nc2ncnc3ccc(Oc4ccc(OCCN(C)C)cn4)cc23)n1 [Example 47, 6-({5-[2-(dimethylamino)ethoxy]pyridin-2-yl}oxy)-N-(3-methyl-1,2,4-thiadiazol-5-yl)quinazoline-4-amine]
19 | 40 nM | Cc1cc(OCCO)cnc1Oc1ccc2ncnc(Nc3cnn(C)n3)c2c1 [Example 84, 2-{[5-methyl-6-({4-[(2-methyl-2H-1,2,3-triazol-4-yl)amino]quinazolin-6-yl}oxy)pyridin-3-yl]oxy}ethanol]
20 | 200 nM | Cc1cnc(Nc2ncnc3ccc(Oc4ncc(OCCO)cc4Cl)cc23)cn1 [Example 58, 2-{[5-chloro-6-({4-[(5-methylpyrazin-2-yl)amino]-1quinazolin-6-yl}oxy)pyridin-3-yl]oxy}ethanol]
21 | 6090 nM | CN(C)CCN(C)C(=O)c1ccnc(Oc2ccc3ncnc(Nc4ccn(C)n4)c3c2)c1Cl [Example 67, 3-chloro-N-[2-(dimethylamino)ethyl]-N-methyl-2-({4-[(1-methyl-1H-pyrazol-3-yl)amino]quinazolin-6-yl}oxy)isonicotinamide]
22 | 26 nM | CNCCOc1cnc(Oc2ccc3ncnc(Nc4ccn(C)n4)c3c2)c(C)c1 [Example 70, N-methyl-2-{[5-methyl-6-({4-[(1-methyl-1H-pyrazol-3-yl)amino]quinazolin-6-yl}oxy)pyridin-3-yl]oxy}ethanamine hydrochloride]
23 | 350 nM | Cc1cnc(Nc2ncnc3ccc(Oc4ncc(OCCNC(C)C)cc4F)cc23)cn1 [Example 40, 6-({3-fluoro-5-[2-(isopropylamino)ethoxy]pyridin-2-yl}oxy)-N-(5-methylpyrazin-2-yl)quinazoline-4-amine hydrochloride]
24 | 410 nM | CN(C)CCN(C)C(=O)c1cnc(Oc2ccc3ncnc(Nc4ccn(C)n4)c3c2)c(Cl)c1 [Example 65, 5-chloro-N-[2-(dimethylamino)ethyl]-N-methyl-6-({4-[(1-methyl-1H-pyrazol-3-yl)amino]quinazolin-6-yl}oxy)nicotinamide]
25 | 1140 nM | CN(C)CCCN(C)S(=O)(=O)c1cnc(Oc2ccc3ncnc(Nc4ccn(C)n4)c3c2)c(Cl)c1 [Example 64, 5-chloro-N-[3-(dimethylamino)propyl]-N-methyl-6-({4-[(1-methyl-1H-pyrazol-3-yl)amino]quinazolin-6-yl}oxy)pyridine-3-sulfonamide]
26 | 110 nM | COc1ccc2nc(Nc3ncnc4ccc(Oc5ncc(OCCN(C)C)cc5Cl)cc34)sc2n1 [Example 46, 6-({3-chloro-5-[2-(dimethylamino)ethoxy]pyridin-2-yl}oxy)-N-(5-methoxy-[1,3]thiazolo[5,4-b]pyridin-2-yl)quinazoline-4-amine]
27 | 360 nM | Cn1ccc(Nc2ncnc3ccc(Oc4ncc(OCCO)cc4F)cc23)n1 [Example 54, 2-{[5-fluoro-6-({-4-[(1-methyl-1H-pyrazol-3-yl)amino]quinazolin-6-yl}oxy)pyridin-3-yl]oxy}ethanol]
28 | 13 nM | Cc1cc(OCCNC(C)C)cnc1Oc1ccc2ncnc(Nc3cnn(C)n3)c2c1 [Example 81, N-(2-{[5-methyl-6-({4-[(2-methyl-2H-1,2,3-triazol-4-yl)amino]quinazolin-6-yl}oxy)pyridin-3-yl]oxy}ethyl)propan-2-amine hydrochloride]
29 | 380 nM | Cc1cnc(Nc2ncnc3ccc(Oc4ccc(OCCNC(C)C)cn4)cc23)cn1 [Example 37, 6-({5-[2-(isopropylamino)ethoxy]pyridin-2-yl}oxy)-N-(5-methylpyrazin-2-yl)quinazoline-4-amine]
30 | 230 nM | CC(C)NCCOc1ccc(Oc2ccc3ncnc(Nc4cnn(C)n4)c3c2)nc1 [Example 76, N-(2-{[6-({4-[(2-methyl-2H-1,2,3-triazol-4-yl)amino]quinazolin-6-yl}oxy)pyridin-3-yl]oxy}ethyl)propan-2-amine hydrochloride]
31 | 260 nM | CN(C)CCOc1cnc(Oc2ccc3ncnc(Nc4cnccn4)c3c2)c(Cl)c1 [Example 44, 6-({3-chloro-5-[2-(dimethylamino)ethoxy]pyridin-2-yl}oxy)-N-pyrazin-2-ylquinazoline-4-amine]
32 | 410 nM | Cc1cnc(Nc2ncnc3ccc(Oc4ncc(OCCCO)cc4Cl)cc23)cn1 [Example 61, 3-{[5-chloro-6-({4-[(5-methylpyrazin-2-yl)amino]quinazolin-6-yl}oxy)pyridin-3-yl]oxy}propan-1-ol]
